The record followed here is patent US20070185168A1, “Piperidine derivatives” (priority 2004, published 2007).

The target in assay [1] is T1, NR2B subunit of the NMDA receptor (Rattus norvegicus, UniProt P35439+Q00960).
T1 construct: The forebrain membrane specimen of male rats of an SD strain; from tissue; host or cells: rat (SD strain, male) forebrain membranes
Kind of assay: Antagonistic activity at rat NMDA receptor NR2B subunit: inhibition of [3H]ifenprodil binding to rat forebrain membrane. The procedure: Antagonistic Activity at Rat NMDA Receptor NR2B Subunit
The forebrain membrane specimen of male rats of an SD strain (final concentration: 250 μg protein/mL), [^3H]-ifenprodil [diluted with an HEPES buffer (20 mmol/L HEPES-KOH and 100 μmol/L trifluoroperazine (pH 7.4)) to give the final concentration of 4 nmol/L] and a test compound (each being diluted with an HEPES buffer to give the final concentration of […]) were mixed, and incubated at 25° C. for 90 minutes shading from light. The above-incubated membrane was recovered to a G/F-B filter using a cell harvester (Brandel; M-24) to stop the reaction. The resulting membrane was further washed with an HEPES buffer for three times, and radioactivity on the filter was measured (Beckman LS 6500). The antagonistic activity of the test compound for an NMDA receptor NR2B subunit was calculated by the following formula as an inhibiting rate for binding of [^3H]ifenprodil to the NR2B subunit of the NMDA receptor. The result is shown in Table 6 in terms of the concentration (IC50 value) of the test compound for 50% inhibition of binding of [^3H]ifenprodil to the NR2B subunit of the NMDA receptor. [formula] Non-specific binding amount: Binding amount of [^3H]ifenprodil in the presence of 10 μmol/L of ifenprodil Total binding amount: Binding amount of [^3H]ifenprodil in the absence of the test compound
Binding amount in the present of test compound: Binding amount of [^3H]ifenprodil in the presence of the test compound in each concentration

In assay [2] the test system is strangulated nerve-damaged rats. Kind of assay: Suppressive effect on neurogenic pain (allodynia, von Frey pain threshold) in strangulated nerve-damaged rats. The format is in vivo, rat. The settings on record: male SD rats, orally administered at the dose of 5 and 10 mg/kg, measured 1, 3 and 5 hours after administration. As to the method: Suppressive Effect of the Compound to Neurogenic Pain in Strangulated Nerve-damaged Rats
The test was carried out in accordance with a method by G. M. Pitcher, et al. [Pain, 1999,. vol. 83, pages 37 to 46] which is an improvement of a method by T. Mosconi and K. Kruger [Pain, 1996, vol. 64, pages 37 to 57].
Using male rats of an SD strain (Sprague-Dawley rats), strangulated nerve-damaged rats were prepared by removing sciatic nerve under anesthetizing with pentobarbital, and covering with a PE-60 polyethylene tube (trade name: Intramedic; size: PE-60; manufactured by Becton Dickinson) having a length of 2 mm over the removed area. After 14 to 21 days from the preparation, the following test was carried out. Incidentally, a pain threshold (g) was calculated by the following method, and the rats (strangulated rat-damaged rats) showing less than 4 g of a 50% pain threshold were used for the test in which one group comprised six rats. […]
For the measurement of allodynia which is characteristically noted in neurogenic pain, a von Frey filament (trade name: touch test sensory evaluator; catalog number: model 58011) was used and the result is expressed as a pain threshold (g). The pain threshold (g) was calculated by the up-down method by W. J. Dixon [Annual Review of Pharmacology and Toxicology, 1980, vol. […]

Where [3] appears, read: forebrain membrane of male SD rats, 4 nmol/L [3H]-ifenprodil, 25° C., 90 minutes, read-out: IC50, concentration for 50% inhibition of binding of [3H]ifenprodil to the NR2B subunit of the NMDA receptor.

Like-named read-outs stand apart in the source and are kept apart here.

T1 sequence (Q00960 27-1482, other chains not shown): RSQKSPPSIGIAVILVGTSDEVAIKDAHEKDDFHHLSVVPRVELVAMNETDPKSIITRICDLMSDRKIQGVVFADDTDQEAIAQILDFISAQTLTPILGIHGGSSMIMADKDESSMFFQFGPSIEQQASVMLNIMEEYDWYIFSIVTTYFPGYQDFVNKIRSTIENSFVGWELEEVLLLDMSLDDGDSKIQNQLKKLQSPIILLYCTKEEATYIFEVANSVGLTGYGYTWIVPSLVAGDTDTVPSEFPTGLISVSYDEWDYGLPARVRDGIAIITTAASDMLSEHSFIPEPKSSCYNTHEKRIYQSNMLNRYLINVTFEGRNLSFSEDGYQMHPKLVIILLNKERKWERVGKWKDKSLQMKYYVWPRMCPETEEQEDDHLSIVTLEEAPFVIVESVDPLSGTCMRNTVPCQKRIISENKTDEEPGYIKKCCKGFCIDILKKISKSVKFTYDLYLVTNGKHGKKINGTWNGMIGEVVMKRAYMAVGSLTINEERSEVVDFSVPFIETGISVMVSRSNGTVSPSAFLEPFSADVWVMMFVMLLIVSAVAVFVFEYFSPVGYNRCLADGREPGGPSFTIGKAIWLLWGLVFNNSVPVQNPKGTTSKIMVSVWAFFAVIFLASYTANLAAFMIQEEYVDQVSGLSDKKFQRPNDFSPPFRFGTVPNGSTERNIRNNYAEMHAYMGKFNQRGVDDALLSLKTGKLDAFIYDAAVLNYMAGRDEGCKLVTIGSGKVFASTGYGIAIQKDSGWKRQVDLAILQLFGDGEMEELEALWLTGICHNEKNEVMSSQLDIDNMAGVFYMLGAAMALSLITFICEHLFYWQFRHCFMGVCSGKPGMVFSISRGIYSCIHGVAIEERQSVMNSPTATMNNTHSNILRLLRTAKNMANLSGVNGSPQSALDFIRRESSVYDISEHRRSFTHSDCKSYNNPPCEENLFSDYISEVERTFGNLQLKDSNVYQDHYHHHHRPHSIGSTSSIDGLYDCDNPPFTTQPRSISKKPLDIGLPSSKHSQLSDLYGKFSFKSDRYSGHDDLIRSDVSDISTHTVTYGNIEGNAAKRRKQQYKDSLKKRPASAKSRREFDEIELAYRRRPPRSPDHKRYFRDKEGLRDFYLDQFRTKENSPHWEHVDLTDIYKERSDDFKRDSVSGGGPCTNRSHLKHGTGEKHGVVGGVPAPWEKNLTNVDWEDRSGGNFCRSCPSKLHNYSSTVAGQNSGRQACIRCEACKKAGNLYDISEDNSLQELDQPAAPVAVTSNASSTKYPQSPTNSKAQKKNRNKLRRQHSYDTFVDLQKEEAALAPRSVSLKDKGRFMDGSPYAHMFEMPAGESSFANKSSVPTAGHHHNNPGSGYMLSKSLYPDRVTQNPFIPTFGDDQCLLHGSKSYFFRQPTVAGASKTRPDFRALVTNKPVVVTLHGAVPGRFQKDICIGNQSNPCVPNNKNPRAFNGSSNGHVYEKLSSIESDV

`CC(C(O)c1ccc2[nH]c(=O)sc2c1)N1CCC(O)(c2cccs2)CC1` (racemic) [Compound 1, (±)-threo-6-{1-Hydroxy-2-[4-hydroxy-4-(thiophenee-2-yl)piperidino]propyl}benzothiazol-2(3H)-one] gave an IC50 in assay [1] of 2 nM.

As to `CC(C(O)c1ccc2[nH]c(=O)sc2c1)N1CCC(O)(c2cccs2)CC1` (racemic) [Compound 2, (±)-erythro-6-{1-hydroxy-2-[4-hydroxy-4-thiophenee-2-yl)piperidino]propyl}benzothiazol-2(3H)-one], the IC50 in assay [1] came out at 4.1 nM.

For `CC(C(O)c1ccc2c(c1)CCC(=O)N2)N1CCC(O)(c2cccs2)CC1` (racemic) [Compound 6, (±)-threo-6-{1-Hydroxy-2-[4-hydroxy-4-(thiophene-2-yl)piperidino]propyl}-3,4-dihydroquinolin-2(1H)-one], the IC50 in assay [1] (setting [3]) stood at 4.6 nM. Moreover, the “improvement of allodynia (pain threshold, von Frey filament) versus Solvent treated group” value in assay [2] was “significantly improved”.

In the case of `CC(C(O)c1ccc2c(c1)CCC(=O)N2)N1CCC(O)(c2cccs2)CC1` (racemic) [Compound 7, (±)-erythro-6-{1-Hydroxy-2-[4-hydroxy-4-(thiophene-2-yl)piperidino]propyl}-3,4-dihydroquinolin-2(1H)-one], in assay [1] (setting [3]), the IC50 was 5.5 nM.

In assay [1], `O=c1[nH]c2ccc(C(O)CN3CCC(O)(c4cccs4)CC3)cc2s1` (centres unmarked) [Compound 5, 6-{1-Hydroxy-2-[4-hydroxy-4-(thiophene-2-yl)-piperidino]ethyl}benzothiazol-2(3H)-one] yielded an IC50 of 2.9 nM.

Regarding `O=C1CCc2cc(C(O)CN3CCC(O)(c4cccs4)CC3)ccc2N1` (centres unmarked) [Compound 10], the IC50 in assay [1] (setting [3]) came to 5.2 nM. Besides, in assay [2], the “improvement of allodynia (pain threshold, von Frey filament) versus Solvent treated group” value is on record as “significantly improved”.
